Source: patent publication US6806230B1, “Pyrimidine derivatives and herbicides containing them” (Kumiai Chemical Industry Co., Ltd., priority 1999, dated 2004)

Assays:
Type in all cases: in vivo
[1] = tested on: barnyard grass (Eo); experiment: Test Example 1: herbicidal effects by flooded paddy field treatment; set-up: herbicidal effects, Eo (barnyard grass):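 0-5 growth inhibition grade; 5 = over 90%; 4 = 70-90%; 3 = 50-70%; 2 = 30-50%; 1 = 10-30%; 0 = under 10%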; details: for Herbicidal effect index, Eo: dose 100 gai/10a, examined on 21st day after treatment, index 0-5 per Table 44; for herbicidal effects, Eo (barnyard grass): dose 100 g active ingredient per 10 ares, examined on the 21st day after treatment, standards of Table 44;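 on Herbicidal effect index, Eo: 0-5 growth inhibition grade; 5 = over 90%; 4 = 70-90%; 3 = 50-70%; 2 = 30-50%; 1 = 10-30%; 0 = under 10%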
Method in brief: (§1)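 Herbicidal effect is a graded score assigned 21 days after treatment. Application was one day after sowing into flooded (3 cm) puddled paddy soil, with diluted wettable powder dropped onto the water at 100 g active ingredient per 10 ares. Plants were kept in a greenhouse.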

[2] = tested on: monochoria (Mo); experiment: as above; set-up: herbicidal effects, Mo (monochoria):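 0-5 growth inhibition grade; 5 = over 90%; 4 = 70-90%; 3 = 50-70%; 2 = 30-50%; 1 = 10-30%; 0 = under 10%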; details: for Herbicidal effect index, Mo: dose 100 gai/10a, examined on 21st day after treatment, index 0-5 per Table 44; for herbicidal effects, Mo (monochoria): dose 100 g active ingredient per 10 ares, examined on the 21st day after treatment, standards of Table 44
Method in brief: as §1

[3] = tested on: barnyard grass (Ec); experiment: Test Example 2: herbicidal effects by upland soil treatment; set-up: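 0-5 growth inhibition grade; 5 = over 90%; 4 = 70-90%; 3 = 50-70%; 2 = 30-50%; 1 = 10-30%; 0 = under 10%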; details: dose 100 g active ingredient per 10 ares, examined on the 21st day after treatment, standards of Table 44
Method in brief: (§2)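 Pre-emergence test: barnyard grass and green foxtail sown in upland soil, then soil surface sprayed with wettable-powder formulation at 100 g active ingredient per 10 ares (100 l per 10 ares). Grown in greenhouse; herbicidal effect scored on a rating scale 21 days after treatment.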

[4] = tested on: green foxtail (Se); experiment: as above; details: dose 100 g active ingredient per 10 ares, examined on the 21st day after treatment, standards of Table 44;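 further: 0-5 growth inhibition grade; 5 = over 90%; 4 = 70-90%; 3 = 50-70%; 2 = 30-50%; 1 = 10-30%; 0 = under 10%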
Method in brief: as §2

[5] = tested on: barnyard grass (Ec); experiment: Test Example 5: selectivity for a crop plant by soil treatment in upland field; set-up: scale not given here; details: dose 25 gai/10a, 21st day after treatment, index per Table 44
Description: (§3) In a 80 cm^2 plastic pot, upland soil was filled, and seeds of barnyard grass (Ec), green foxtail (Se), soybean (G1), wheat (Tr) and corn (Ze) were sown and covered with soil. A wettable powder prepared in accordance with Formulation Example 1 was diluted with water and uniformly applied to the soil surface by a small size spray at a rate of 100 l per 10 ares so that the dose of the active ingredient would be 25 g per 10 ares. Thereafter, cultivation was carried out in a green house, and on the 21st day after the treatment, the herbicidal effects were examined in accordance with the standards of Table 44.

[6] = tested on: corn (Ze); experiment: as above; set-up: scale not given here; details: dose 25 gai/10a, 21st day after treatment, index per Table 44
Description: as §3

[7] = tested on: wheat (Tr); experiment: as above; set-up: scale not given here; details: dose 25 gai/10a, 21st day after treatment, index per Table 44
Description: as §3

[8] = tested on: barnyard grass (Eo); experiment: Test Example 4: selectivity for a crop plant by flooded paddy field treatment; set-up: scale not given here; details: for Eo (herbicidal effects, index): dose 25 g active ingredient per 10 ares, examined on the 21st day after treatment; for Eo (herbicidal effect index): barnyard grass, dose 25 gai/10a, 21st day after treatment, index per Table 44
Method in brief: (§4)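 Scores reflect visual herbicidal effect, graded on a standard scale 21 days after water-surface treatment. The product, a wettable powder diluted with water, went on dropwise at 25 g a.i. per 10 ares one day after flooding to 3 cm. Weeds grew from sown seed and rice was transplanted at second-leaf stage.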

[9] = tested on: monochoria (Mo); experiment: as above; set-up: scale not given here; details: for Mo (herbicidal effects, index): dose 25 g active ingredient per 10 ares, examined on the 21st day after treatment; for Mo (herbicidal effect index): monochoria, dose 25 gai/10a, 21st day after treatment, index per Table 44
Method in brief: as §4

[10] = tested on: rice (Or); experiment: as above; set-up: scale not given here; details: rice transplanted at second leaf stage; for Or (effect on crop plant rice, index): dose 25 g active ingredient per 10 ares, examined on the 21st day after treatment; for Or (herbicidal effect index on crop): dose 25 gai/10a, 21st day after treatment, index per Table 44
Method in brief: as §4

[11] = tested on: barnyard grass (Ec); experiment: Test Example 3: herbicidal effects by foliage treatment in upland field; set-up: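 0-5 growth inhibition grade; 5 = over 90%; 4 = 70-90%; 3 = 50-70%; 2 = 30-50%; 1 = 10-30%; 0 = under 10%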; details: dose 100 g active ingredient per 10 ares, examined on the 14th day after treatment
Method in brief: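 Barnyard grass and green foxtail were grown in upland soil for 2 weeks in a greenhouse. A water-diluted wettable powder was sprayed over the foliage at 100 l per 10 ares, giving 100 g active ingredient per 10 ares. Herbicidal effect was scored on day 14 after treatment.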

[12] = tested on: soybean (G1); experiment: Test Example 5: selectivity for a crop plant by soil treatment in upland field; set-up: scale not given here; details: dose 25 gai/10a, 21st day after treatment, index per Table 44
Description: as §3
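Wherever Herbicidal effect index, Mo is given: 0-5 growth inhibition grade; 5 = over 90%; 4 = 70-90%; 3 = 50-70%; 2 = 30-50%; 1 = 10-30%; 0 = under 10%.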

Structure (SMILES) | Herbicidal effect index, Eo [1] | Herbicidal effect index, Mo [2] | herbicidal effects, Ec (barnyard grass) [3] | herbicidal effects, Se (green foxtail) [4] | Ec (herbicidal effect index) [5] | Ze (herbicidal effect index on crop) [6] | Tr (herbicidal effect index on crop) [7] | Eo (herbicidal effects, index) [8] | Mo (herbicidal effects, index) [9] | Or (effect on crop plant rice, index) [10] | Ec (herbicidal effects, index) [11] | Gl (herbicidal effect index on crop) [12] | Eo (herbicidal effect index) [8] | Mo (herbicidal effect index) [9] | Or (herbicidal effect index on crop) [10] | herbicidal effects, Eo (barnyard grass) [1] | herbicidal effects, Mo (monochoria) [2]
CC(C(=O)N(C)C(c1cncnc1C(F)(F)F)C(C)C)c1ccc(Cl)cc1 (mixture of isomers) [Compound 1-71] | 5 | 5 | 5 | 5 | 5 | 0 | 3 |  |  |  |  |  |  |  |  |  | 
CC(C)C(c1cncnc1C(F)(F)Cl)N(C)C(=O)Cc1ccccc1 (racemic) [Compound 1-15] | 5 | 5 | 5 | 5 | 5 | 1 | 1 |  |  |  |  |  |  |  |  |  | 
Cc1ccc(CC(=O)N(C)C(c2cncnc2C(F)(F)F)C(C)C)cc1 (racemic) [Compound 1-23] | 5 | 5 | 5 | 5 | 5 | 1 | 2 | 5 | 5 | 1 |  |  |  |  |  |  | 
CCN(C(=O)Cc1ccccc1)C(c1cncnc1C(F)(F)F)C(C)C (racemic) [Compound 1-26] | 5 | 5 | 5 | 5 |  |  |  | 5 | 5 | 1 | 4 |  |  |  |  |  | 
CC(C)C(c1cncnc1C(F)(F)F)N(C)C(=O)Cc1ccc(Br)cc1 (racemic) [Compound 1-41] | 5 | 5 | 5 | 5 |  |  |  | 5 | 5 | 0 | 5 |  |  |  |  |  | 
COc1cc(CC(=O)N(C)C(c2cncnc2C(F)(F)F)C(C)C)ccc1Cl (racemic) [Compound 1-47] | 5 | 5 | 5 | 5 |  |  |  | 5 | 5 | 0 | 4 |  |  |  |  |  | 
CC(C)C(c1cncnc1C(F)(F)F)N(C)C(=O)COc1ccccc1 (racemic) [Compound 1-64] | 5 | 5 | 5 | 5 | 4 | 0 | 3 |  |  |  |  | 2 |  |  |  |  | 
CC(C)C(c1cncnc1C(F)(F)F)N(C)C(=O)COc1ccc(Cl)cc1 (racemic) [Compound 1-65] | 5 | 5 | 5 | 5 | 5 | 0 | 0 |  |  |  |  | 0 |  |  |  |  | 
CC(C)C(c1cncnc1C(F)(F)F)N(C)C(=O)CCc1ccccc1 (racemic) [Compound 1-77] |  |  | 5 | 5 | 5 | 2 | 3 |  |  |  |  | 1 |  |  |  |  | 
CC#Cc1ccc(CC(=O)N(C)C(c2cncnc2C(F)(F)F)C(C)C)cc1 (racemic) [Compound 1-84] | 5 | 5 |  |  | 4 | 0 | 1 | 5 | 5 | 0 |  | 0 |  |  |  |  | 
Cc1ncncc1C(C(C)C)N(C)C(=O)Cc1ccccc1 (racemic) [Compound 1-87] | 5 | 5 | 5 | 5 |  |  |  | 5 | 5 | 1 | 4 |  |  |  |  |  | 
CCCC(c1cncnc1C(F)(F)F)N(C)C(=O)Cc1ccc(C)cc1 (racemic) [Compound 1-113] | 5 | 5 | 5 | 4 |  |  |  |  |  |  | 4 |  | 5 | 5 | 0 |  | 
CC(C)C(c1cncnc1C(F)(F)F)N(C)C(=O)COc1cccc(Cl)c1 (racemic) [Compound 1-133] |  |  | 5 | 5 |  |  |  |  |  |  | 5 |  | 5 | 5 | 1 | 5 | 5
CN(C(=O)Cc1ccccc1)C(c1cncnc1C(F)(F)F)C1CCCC1 (racemic) [Compound 1-137] |  |  | 5 | 5 |  |  |  |  |  |  | 5 |  | 5 | 5 | 1 | 5 | 5
CC(C)C(c1cncnc1C(F)(F)F)N(C)C(=S)Cc1ccc(Cl)cc1 (racemic) [Compound 1-144] |  |  | 5 | 5 |  |  |  |  |  |  | 4 |  | 5 | 5 | 1 | 5 | 5
CSc1ncncc1C(C(C)C)N(C)C(=O)Cc1ccc(F)cc1 (racemic) [Compound 1-152] |  |  | 5 | 5 |  |  |  |  |  |  | 4 |  | 5 | 5 | 1 | 5 | 5
CSc1ncncc1C(C(C)C)N(C)C(=O)Cc1ccc(C)cc1 (racemic) [Compound 1-153] |  |  | 5 | 5 |  |  |  |  |  |  | 4 |  | 5 | 5 | 1 | 5 | 5
C#CCN(C(=O)Cc1ccc(F)cc1)C(c1cncnc1C(F)(F)F)C(C)C (racemic) [Compound 1-172] |  |  | 5 | 5 |  |  |  |  |  |  | 5 |  | 5 | 5 | 1 | 5 | 5
